# Experimental data from PubChem BioAssay (NCI).
#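 Assay format: 96-well plates, 48-hour exposure. TGI marks complete inhibition of growth.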
# Key:
# Test in all cases: DTP human tumour cell line panel, 48 h
# [1] = test system: OVCAR-3 ovarian
# [2] = test system: HOP-92 NSCLC
# [3] = test system: HL-60(TB) leukemia
# [4] = test system: SK-MEL-5 melanoma
# [5] = test system: OVCAR-8 ovarian
# [6] = test system: MOLT-4 leukemia
# [7] = test system: UACC-257 melanoma
# [8] = test system: SNB-75 CNS
# [9] = test system: RXF 393 renal
# [10] = test system: HS 578T breast
# [11] = test system: A498 renal
# [12] = test system: OVCAR-5 ovarian
# [13] = test system: SR leukemia
# [14] = test system: CAKI-1 renal
# [15] = test system: MALME-3M melanoma
# [16] = test system: CCRF-CEM leukemia
# [17] = test system: TK-10 renal
# [18] = test system: RPMI-8226 leukemia
# [19] = test system: SK-OV-3 ovarian
# [20] = test system: K-562 leukemia
# [21] = test system: DU-145 prostate
# [22] = test system: BT-549 breast
# [23] = test system: HCT-15 colon
# [24] = test system: UO-31 renal
# [25] = test system: NCI-H23 lung
# [26] = test system: SNB-19 CNS
# [27] = test system: SK-MEL-28 melanoma
# [28] = test system: COLO 205 colon
# [29] = test system: OVCAR-4 ovarian
# [30] = test system: MCF7 breast
# [31] = test system: UACC-62 melanoma
# [32] = test system: U251 CNS
# [33] = test system: MDA-MB-231 breast
# [34] = test system: NCI-H522 lung
# [35] = test system: HCC-2998 colon
# [36] = test system: SF-539 CNS
# [37] = test system: MDA-N
# [38] = test system: IGROV1 ovarian
# [39] = test system: T-47D breast
# [40] = test system: KM12 colon
# [41] = test system: ACHN renal
# [42] = test system: HCT-116 colon
# [43] = test system: HT29 colon
# [44] = test system: SK-MEL-2 melanoma
# [45] = test system: NCI-H226 lung
# [46] = test system: NCI/ADR-RES ovarian
# [47] = test system: 786-0 renal
# [48] = test system: NCI-H460 lung
# [49] = test system: A549 NSCLC
# [50] = test system: MDA-MB-435
# [51] = test system: M14 melanoma
# [52] = test system: PC-3 prostate
# [53] = test system: SW-620 colon
# [54] = test system: SF-295 CNS
# [55] = test system: LOX IMVI melanoma
# [56] = test system: EKVX NSCLC
# [57] = test system: HOP-62 NSCLC
# [58] = test system: SF-268 CNS
# [59] = test system: SN12C renal
structure (smiles),measurement,setting,value
CN(CCO)CC(=O)CC(O)(C(F)(F)F)C(F)(F)F,TGI,[1],87 µM
same,TGI,[2],54.2 µM
same,TGI,[3],73.5 µM
same,TGI,[4],31.8 µM
same,TGI,[5],> 100 µM
same,TGI,[6],> 100 µM
same,TGI,[7],> 100 µM
same,TGI,[8],51.7 µM
same,TGI,[9],46.8 µM
same,TGI,[10],58.7 µM
same,TGI,[11],> 100 µM
same,TGI,[12],> 100 µM
same,TGI,[13],> 100 µM
same,TGI,[14],90.3 µM
same,TGI,[15],> 100 µM
same,TGI,[16],91.9 µM
same,TGI,[17],> 100 µM
same,TGI,[18],> 100 µM
same,TGI,[19],74.3 µM
same,TGI,[20],> 100 µM
same,TGI,[21],> 100 µM
same,TGI,[22],> 100 µM
same,TGI,[23],> 100 µM
same,TGI,[24],> 100 µM
same,TGI,[25],60.2 µM
same,TGI,[26],> 100 µM
same,TGI,[27],> 100 µM
same,TGI,[28],> 100 µM
same,TGI,[29],> 100 µM
same,TGI,[30],> 100 µM
same,TGI,[31],> 100 µM
same,TGI,[32],> 100 µM
same,TGI,[33],> 100 µM
same,TGI,[34],> 100 µM
same,TGI,[35],> 100 µM
same,TGI,[36],> 100 µM
same,TGI,[37],> 100 µM
same,TGI,[38],> 100 µM
same,TGI,[39],> 100 µM
same,TGI,[40],> 100 µM
same,TGI,[41],99.4 µM
same,TGI,[42],> 100 µM
same,TGI,[43],> 100 µM
same,TGI,[44],95.3 µM
same,TGI,[45],> 100 µM
same,TGI,[46],> 100 µM
same,TGI,[47],> 100 µM
same,TGI,[48],> 100 µM
same,TGI,[49],> 100 µM
same,TGI,[50],> 100 µM
same,TGI,[51],> 100 µM
same,TGI,[52],82.8 µM
same,TGI,[53],> 100 µM
same,TGI,[54],> 100 µM
same,TGI,[55],86.3 µM
same,TGI,[56],> 100 µM
Cc1sc2ncnc(NCCc3ccccc3)c2c1C,TGI,[1],> 100 µM
same,TGI,[2],15.5 µM
same,TGI,[3],29.3 µM
same,TGI,[4],12.2 µM
same,TGI,[5],38 µM
same,TGI,[6],63.8 µM
same,TGI,[7],17.3 µM
same,TGI,[8],53.5 µM
same,TGI,[9],34.1 µM
same,TGI,[10],63.6 µM
same,TGI,[11],29 µM
same,TGI,[12],35.8 µM
same,TGI,[13],26.6 µM
same,TGI,[14],56.7 µM
same,TGI,[15],52.3 µM
same,TGI,[16],49.3 µM
same,TGI,[57],33.8 µM
same,TGI,[17],46.5 µM
same,TGI,[18],42.8 µM
same,TGI,[19],73.4 µM
same,TGI,[58],60.1 µM
same,TGI,[20],63.1 µM
same,TGI,[21],70.9 µM
same,TGI,[22],62.9 µM
same,TGI,[23],87.7 µM
same,TGI,[24],38.8 µM
same,TGI,[25],36 µM
same,TGI,[26],> 100 µM
same,TGI,[27],35 µM
same,TGI,[28],24.4 µM
same,TGI,[29],59 µM
same,TGI,[30],28.6 µM
same,TGI,[31],24.6 µM
same,TGI,[32],26.7 µM
same,TGI,[33],37.9 µM
same,TGI,[34],25.1 µM
same,TGI,[35],31.1 µM
same,TGI,[36],31.2 µM
same,TGI,[37],23.8 µM
same,TGI,[38],32.5 µM
same,TGI,[39],56.6 µM
same,TGI,[59],28.3 µM
same,TGI,[40],29.6 µM
same,TGI,[41],69.2 µM
same,TGI,[42],24.9 µM
same,TGI,[43],45.3 µM
same,TGI,[44],31.2 µM
same,TGI,[45],42.3 µM
same,TGI,[46],> 100 µM
same,TGI,[47],45.7 µM
same,TGI,[48],23.9 µM
same,TGI,[49],83 µM
same,TGI,[50],34.6 µM
same,TGI,[51],41.3 µM
same,TGI,[52],40.3 µM
same,TGI,[53],> 100 µM
same,TGI,[54],36.9 µM
same,TGI,[55],22.4 µM
same,TGI,[56],13.9 µM
Cc1c(-c2ccccc2)c(-c2ccc(OCCN(C)C)cc2)n2ccccc12,TGI,[1],26.1 µM
same,TGI,[2],24.6 µM
same,TGI,[3],19.4 µM
same,TGI,[4],3.44 µM
same,TGI,[5],28.5 µM
same,TGI,[6],15.8 µM
same,TGI,[7],4.16 µM
same,TGI,[8],22.4 µM
same,TGI,[9],25.7 µM
same,TGI,[10],20.9 µM
same,TGI,[11],29.1 µM
same,TGI,[12],28.8 µM
same,TGI,[13],6.49 µM
same,TGI,[14],23.9 µM
same,TGI,[15],17.3 µM
same,TGI,[16],15.5 µM
same,TGI,[57],28.6 µM
same,TGI,[17],27.3 µM
same,TGI,[18],6.96 µM
same,TGI,[19],30.2 µM
same,TGI,[58],34.2 µM
same,TGI,[20],4.14 µM
same,TGI,[21],26.3 µM
same,TGI,[22],18.7 µM
same,TGI,[23],8.06 µM
same,TGI,[24],23.7 µM
same,TGI,[25],32 µM
same,TGI,[26],25.3 µM
same,TGI,[27],3.45 µM
same,TGI,[28],3.08 µM
same,TGI,[29],26.1 µM
same,TGI,[30],23.7 µM
same,TGI,[31],3.66 µM
same,TGI,[32],24.7 µM
same,TGI,[33],23.6 µM
same,TGI,[34],24 µM
same,TGI,[35],3.27 µM
same,TGI,[36],24.8 µM
same,TGI,[37],14.3 µM
same,TGI,[38],23.8 µM
same,TGI,[39],22.9 µM
same,TGI,[59],25.4 µM
same,TGI,[40],15.1 µM
same,TGI,[41],27.8 µM
same,TGI,[42],19 µM
same,TGI,[43],3.46 µM
same,TGI,[44],21.2 µM
same,TGI,[45],30.9 µM
same,TGI,[46],27.5 µM
same,TGI,[47],20.9 µM
same,TGI,[48],7.3 µM
same,TGI,[49],29 µM
same,TGI,[50],11.4 µM
same,TGI,[51],3.45 µM
same,TGI,[52],20.3 µM
same,TGI,[53],17.9 µM
same,TGI,[54],26.7 µM
same,TGI,[55],5.81 µM
same,TGI,[56],31.8 µM
